Structures can show the parent of a compound that is named as a salt.

Test [1] relates to Rat carrageenin pedal edema. The experiment in a line: Rat carrageenin pedal edema inhibitory activity. The format is in vivo, rat (Jcl: SD). The note with it: 50 mg/kg, orally, 3 hours after carrageenin; for inhibition in vivo at 50 mg/kg: Rattus norvegicus, po, 3 h, read-out: Inhibitory percentage (carrageenin pedal edema). As to the method:
Rat Carrageenin Pedal Edema Inhibitory Activity A Jcl: SD male rat (6 weeks old, weight 160-220 g) was used. After the mesurement of the volume of the dexter hind limb foot pad, a test compound suspended in 5% gum arabic solution was administered orally. Immediately after the administration, water was further administered orally so that the total administration volume of liquid became 5 ml/rat. After one hour, 0.05 ml of 1% carrageenin suspension in physiological saline was injected subcutaneously in the foot pad to induce edema [Winter, […]. and Nuss, G. W.: Proc. Soc. exp. […] Three hours after injection of carrageenin, the volume of the dexter limb was measured, and the edema volume was calculated by the difference between the volume after injection and the volume prior to injection.
In general terms: Carrageenan injected into the paw causes an acute inflammation.

Test [2] deals with Mouse phenylquinone writhing. The experiment in a line: Mouse phenylquinone writhing inhibitory activity. The format is in vivo, mouse (Slc: ICR). The note with it: 50 mg/kg, orally; for inhibition in vivo at 50 mg/kg: Mus musculus, po, 20 min, read-out: Inhibitory percentage (phenylquinone writhing). On the procedure: Mouse Phenylquinone Writhing Inhibitory Activity A Slc: ICR male mouse (4 weeks, weight 17 to 24 g) was used. A test compound suspended in 5% gum arabic solution was administered orally. After 30 minutes, 0.1 ml/10 g body weight of 0.02% phenylquinone solution in water (dissolved by the aid of 5% ethanol) was injected intraperitoneally, and writhing and stretching responses of individual animals were measured for 20 minutes [Siegmund, E., Cadmus, R. and Lu, G.; Proc. Soc. exp. Biol. Med. 95, (1957)].
On the technique in general: Writhing tests count abdominal constrictions after an irritant is injected.

A further test deals with T1, cyclooxygenase (Rattus norvegicus, UniProt Q63921).
T1 construct: from tissue; host or cells: platelets in platelet-rich plasma from rat abdominal aorta blood (Jcl:wistar, male)
T1 sequence (Q63921 27-602): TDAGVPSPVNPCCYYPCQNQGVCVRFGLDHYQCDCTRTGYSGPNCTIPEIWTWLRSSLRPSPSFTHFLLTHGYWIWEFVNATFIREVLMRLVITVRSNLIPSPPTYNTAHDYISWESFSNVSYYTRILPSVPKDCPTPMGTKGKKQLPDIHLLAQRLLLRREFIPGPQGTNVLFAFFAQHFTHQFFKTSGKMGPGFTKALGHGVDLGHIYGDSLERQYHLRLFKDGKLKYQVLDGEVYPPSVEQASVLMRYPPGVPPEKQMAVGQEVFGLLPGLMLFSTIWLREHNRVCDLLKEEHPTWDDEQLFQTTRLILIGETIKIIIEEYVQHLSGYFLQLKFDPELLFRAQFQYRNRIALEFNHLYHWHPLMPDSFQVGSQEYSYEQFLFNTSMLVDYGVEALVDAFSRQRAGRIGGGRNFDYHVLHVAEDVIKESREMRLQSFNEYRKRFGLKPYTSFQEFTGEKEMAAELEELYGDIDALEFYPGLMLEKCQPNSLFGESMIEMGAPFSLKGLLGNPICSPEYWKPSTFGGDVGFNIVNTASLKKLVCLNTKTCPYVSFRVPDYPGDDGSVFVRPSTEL
The experiment in a line: Cyclooxygenase inhibitory activity (HHT formation from arachidonic acid in rat platelet-rich plasma). It is filed as cell-based, rat (Jcl:wistar).

Test [3] concerns brewer's yeast induced pyrexia. Kind of test: Antipyretic activity (brewer's yeast induced pyrexia). As to conditions: 50 mg/kg, orally; for Antipyretic activity, .increment. °C.: at peak time. It is filed as in vivo, rat (DS line). As to the method:
Antipyretic Activity Six male DS line rats, 7 weeks old, weighing 200 to 240 g (Nihon Clea) per one group were used. According to the method of Winder et al. (J. Pharmac. Exp. Ther. 138: 405 (1963)), a suspension of 15% brewer's yeast (Sigma) in physiological saline (1 ml/100 g, b.w.) was injected subcutaneously at 16 hours before measurement of the body temperature to induce pyrexia. After injection of yeast, only water was provided, and each rat was bred separately in a five duplicate cage. At 16, 17 and 18 hours after yeast injection, the rectal temperature was measured by a thermistor thermometer (Takara Kogyo K.K.), and this was taken as the basal body temperature. […] Animals having the body temperature of not lower than 38.5° C. at 18 hours after yeast injection were selected, and a test compound was administered orally (1 ml/100 g, b.w.). As a control, only the solvent was provided. Upon administration, the body temperature of the control group and that of the test compound-administered group were adjusted to the same temperature. The rectal temperature was measured every hour till five hours after administration.

The test system of test [4] is ART (antigen-responding T-cell). The experiment in a line: In vitro ART (antigen-responding T-cell) proliferation test. The format is cell-based, Lewis rat. The note with it: for inhibition at 1 µM / inhibition at 10 µM: Rattus norvegicus, T-cell, read-out: % Inhibition of ART growth.

For “4-(4-isobutyrylpiperidylthio)pyridine [Example 136]”, in test [1], the “Inhibitory percentage (carrageenin pedal edema)” value worked out at 33%.

On to `O=C(NCCCSc1ccncc1)c1ccc(-c2ccccc2)cc1` [Example 26, 4-[3-(4-phenylbenzoylamino)propylthio]pyridine hydrochloride], for which the inhibition in vivo at 50 mg/kg in test [2] was found to be 67%. The compound also yielded an IC50 at cyclooxygenase of 3.5 µM.

Take `O=C(NCCCSc1ccncc1)c1ccc(Cl)cc1` [Example 29, 4-[3-(4-chlorobenzoylamino)propylthio]pyridine hydrochloride]: the inhibition in vivo at 50 mg/kg in test [1] was determined as 25%.

As to `O=C(NCCCSc1ccncc1)c1ccccc1` [Example 40, 4-[3-(benzoylamino)propylthio]pyridine], in test [3], the “Antipyretic activity, peak time” value is recorded as 3 h and the “Antipyretic activity, .increment. °C.” value was -2.00 °C. Also, in test [2], the inhibition in vivo at 50 mg/kg stood at 45%. Moreover, the IC50 against cyclooxygenase worked out at 7.6 µM.

As for `CN(CCCSc1ccncc1)C(=O)c1cccs1` [Example 51, 4-[3-(N-methyl-2-thenoylamino)propylthio]pyridine], the inhibition in vivo at 50 mg/kg in test [2] came out at 72%. This compound also had an IC50 against cyclooxygenase of 8.9 µM.

As for `Cc1ccsc1C(=O)NCCCSc1ccncc1` [Example 60, 4-[3-(3-methylthenoylamino)propylthio]pyridine], the inhibition in vivo at 50 mg/kg in test [2] was 41%. At cyclooxygenase, this compound displayed an IC50 of 4.2 µM.

Take `O=C1c2ccccc2C(=O)N1CSc1ccccn1` [Example 64, 2-(phthalimidomethylthio)pyridine]: in test [3], the “Antipyretic activity, peak time” value amounted to 3 h and the “Antipyretic activity, .increment. °C.” value is -2.58 °C. Also, the inhibition in vivo at 50 mg/kg in test [2] is 56%.

`CC(C)(C)C(=O)Nc1ncccc1CCN1C(=O)c2ccccc2C1=O.Cl` [Example 71, 3-[2-(phthalimido)ethyl]-2-(pivaloylamino)pyridine hydrochloride]: in test [3], the “Antipyretic activity, peak time” value is reported as 2 h and the “Antipyretic activity, .increment. °C.” value is -0.52 °C. Also, the inhibition in vivo at 50 mg/kg in test [2] is 55%.

For `CC(=O)N(CCCSc1ccncc1)Cc1ccccc1.Cl` [Example 76, 4-[3-(N-benzyl-N-acetylamino)propylthio]pyridine hydrochloride], the “% Inhibition of ART growth” value in test [4] (1 μM) is on record as 3%; in test [4] (10 μM), 38%. The “Inhibitory percentage (phenylquinone writhing)” value in test [2] turned out to be 61%. This compound showed an IC50 against cyclooxygenase of 13 µM.

Take `O=C(N(CCCSc1ccncc1)Cc1ccccn1)C(F)(F)F` [Example 78, 4-[3-(N-2-pyridylmethyl-N-trifluoroacetylamino)propylthio] pyridine dihydrochloride]: in test [2], the inhibition in vivo at 50 mg/kg was determined as 55%. On cyclooxygenase, this compound gave an IC50 of 5.2 µM.

In the case of `O=C(c1ccccc1)N(CCCSc1ccncc1)Cc1ccccn1` [Example 81, 4-[3-(N-2-pyridylmethyl-N-benzoylamino)propylthio]pyridine], the “Inhibitory percentage (phenylquinone writhing)” value in test [2] is recorded as 75%. The compound also displayed an IC50 at cyclooxygenase of 6.8 µM.

For the compound `O=C1c2ccccc2C(=O)N1CCCOc1ccncc1` [Example 83, 4-(3-phthalimidopropyloxy)pyridine], in test [3], the “Antipyretic activity, peak time” value is 2 h and the “Antipyretic activity, .increment. °C.” value was -0.82 °C. The inhibition in vivo at 50 mg/kg in test [2] is 59%. In addition, half-maximal inhibition on cyclooxygenase (IC50) required 10 µM.

On to `O=C1c2ccccc2C(=O)N1CCCCOc1ccncc1` [Example 84, 4-(4-phthalimidobutyloxy)pyridine], for which, in test [3], the “Antipyretic activity, peak time” value is reported as 3 h and the “Antipyretic activity, .increment. °C.” value is -0.97 °C. In addition, the inhibition in vivo at 50 mg/kg in test [2] worked out at 84%. For the same compound, at cyclooxygenase, the half-maximal inhibitory concentration (IC50) came to 4.5 µM.

Regarding `O=C(NCCCOc1ccncc1)c1cc2ccccc2s1` [Example 85, 4-[3-(thianaphtene-2-carbonylamino)propyloxy]pyridine], in test [3], the “Antipyretic activity, peak time” value is on record as 2 h and the “Antipyretic activity, .increment. °C.” value is -1.00 °C. Further, the inhibition in vivo at 50 mg/kg in test [2] is 70%. On cyclooxygenase, this compound gave a concentration for half-maximal inhibition (IC50) of 1.4 µM.

Take `CCCCCCCCCC(=O)NCCCOc1ccncc1` [Example 88]: the inhibition in vivo at 50 mg/kg in test [2] stood at 41%. The compound further came in with an IC50 at cyclooxygenase of 1.2 µM.

Regarding `O=C(NCCCOc1ccncc1)c1cccs1` [Example 89, 4-[3-(2-thenoylamino)propyloxy]pyridine], in test [3], the “Antipyretic activity, peak time” value stood at 3 h and the “Antipyretic activity, .increment. °C.” value is -2.72 °C. Moreover, in test [2], the inhibition in vivo at 50 mg/kg was determined as 62%.

As to `CC(=O)N(CCCSc1ccncc1)Cc1cccs1.Cl` [Example 91, 4-[3-(N-(2-thienylmethyl)-N-acetylamino)-propylthio]pyridine hydrochloride], the “% Inhibition of ART growth” value in test [4] (1 μM) came to 44%; in test [4] (10 μM) it was 42%. In addition, the “Inhibitory percentage (phenylquinone writhing)” value in test [2] was 52%.

Consider `Cl.O=C(c1ccccc1)N(CCCSc1ccncc1)Cc1cccs1` [Example 93, 4-[3-(N-(2-thienylmethyl)benzoylamino)propylthio]pyridine hydrochloride], for which the inhibition at 1 µM in test [4] (1 μM) came out at 42%. For the same compound, the inhibition at 10 µM in test [4] (10 μM) was found to be 11%. Besides, the “Inhibitory percentage (phenylquinone writhing)” value in test [2] is 41%. Inhibition at cyclooxygenase was half-maximal at 6.3 µM (IC50).

Regarding `O=C1c2ccccc2C(O)N1CSc1ccncc1` (stereo not shown) [Example 97, 4-(3-hydroxyisoindolin-1-on-2-ylmethylthio)pyridine], in test [4] (1 μM), the inhibition at 1 µM amounted to 30%. Moreover, the inhibition at 10 µM in test [4] (10 μM) turned out to be 31%. Further, the inhibition in vivo at 50 mg/kg in test [1] was 29%.

Turning to `O=C1c2ccccc2CN1CCCSc1ccncc1` [Example 111, 4-[3-(isoindolin-1-on-2-yl)propylthio]pyridine], in test [4] (1 μM), the inhibition at 1 µM was found to be 30%. Further, in test [4] (10 μM), the inhibition at 10 µM was -12%. For the same compound, in test [3], the “Antipyretic activity, peak time” value was determined as 2 h and the “Antipyretic activity, .increment. °C.” value is -0.68 °C. In addition, the inhibition in vivo at 50 mg/kg in test [2] was determined as 64%. On cyclooxygenase, this compound gave an IC50 of 7 µM.

As to `O=C(c1ccccc1)N(CCOc1ccncc1)Cc1ccccc1` [Example 118, 4-[2-(N-benzyl-N-benzoyl)aminoethyloxy]pyridine hydrochloride], the “% Inhibition of ART growth” value was 8% in test [4] (1 μM, hydrochloride) and 38% in test [4] (10 μM, hydrochloride). Moreover, the inhibition in vivo at 50 mg/kg in test [1] worked out at 31%.

On to `O=C(NCCCCSc1ccncc1)c1ccccc1` [Example 127, 4-[4-(benzoylamino)butylthio]pyridine], for which the inhibition in vivo at 50 mg/kg in test [1] was 32%.

On to `O=C(c1cccs1)N1CCC(Sc2ccncc2)CC1` [Example 132], for which the inhibition in vivo at 50 mg/kg in test [1] was found to be 45%.

For the compound `O=C(NCSc1ccncc1)c1cccnc1` [Example 138, 4-(3-picolinoylaminomethylthio)pyridine], the inhibition in vivo at 50 mg/kg in test [1] came to 25%.

With `O=C1CCC(=O)N1CCCCSc1ccncc1` [Example 143, 4-(4-succinimidobutylthio)pyridine], the inhibition in vivo at 50 mg/kg in test [1] was 27%.

Turning to `CC(C)(CSc1ccncc1)CN1C(=O)c2ccccc2C1=O` [Example 145, 4-(2,2-dimethyl-3-phthalimidopropylthio)pyridine], the inhibition at 1 µM in test [4] (1 μM) worked out at 17%. Also, the inhibition at 10 µM in test [4] (10 μM) was -42%. For the same compound, in test [1], the inhibition in vivo at 50 mg/kg stood at 22%.

On to `O=C1SC(=Cc2ccccc2)C(=O)N1CSc1ccncc1` [Example 159, 4-(5-benzylidene-2,4-thiazolidinedione)methylthiopyridine], for which the inhibition in vivo at 50 mg/kg in test [1] was determined as 25%.

The IC50 is the point on the concentration scale where inhibition reaches its midpoint. Read a high IC50 as lower potency. As usually defined, the inhibition is the relative decrease from the control value, in per cent.
